Test [1] has as its target RAF proto-oncogene serine/threonine-protein kinase (Homo sapiens) (UniProt P04049). The test is described as follows: Inhibition of human C-Raf assessed as remaining enzyme activity at 0.1 uM.
Test [2] has as its target Tyrosine-protein kinase ABL2 (Mus musculus) (UniProt Q4JIM5). The test is described as follows: Inhibition of mouse ARG assessed as remaining enzyme activity at 0.01 uM.
The target of test [3] is Vascular endothelial growth factor receptor 2 (Homo sapiens) (UniProt P35968). The test is described as follows: Inhibition of human VEGFR2 assessed as remaining enzyme activity at 0.1 uM.
The target of test [4] is T1, Muscle, skeletal receptor tyrosine-protein kinase (Homo sapiens) (UniProt O15146).
T1 sequence (whole entry): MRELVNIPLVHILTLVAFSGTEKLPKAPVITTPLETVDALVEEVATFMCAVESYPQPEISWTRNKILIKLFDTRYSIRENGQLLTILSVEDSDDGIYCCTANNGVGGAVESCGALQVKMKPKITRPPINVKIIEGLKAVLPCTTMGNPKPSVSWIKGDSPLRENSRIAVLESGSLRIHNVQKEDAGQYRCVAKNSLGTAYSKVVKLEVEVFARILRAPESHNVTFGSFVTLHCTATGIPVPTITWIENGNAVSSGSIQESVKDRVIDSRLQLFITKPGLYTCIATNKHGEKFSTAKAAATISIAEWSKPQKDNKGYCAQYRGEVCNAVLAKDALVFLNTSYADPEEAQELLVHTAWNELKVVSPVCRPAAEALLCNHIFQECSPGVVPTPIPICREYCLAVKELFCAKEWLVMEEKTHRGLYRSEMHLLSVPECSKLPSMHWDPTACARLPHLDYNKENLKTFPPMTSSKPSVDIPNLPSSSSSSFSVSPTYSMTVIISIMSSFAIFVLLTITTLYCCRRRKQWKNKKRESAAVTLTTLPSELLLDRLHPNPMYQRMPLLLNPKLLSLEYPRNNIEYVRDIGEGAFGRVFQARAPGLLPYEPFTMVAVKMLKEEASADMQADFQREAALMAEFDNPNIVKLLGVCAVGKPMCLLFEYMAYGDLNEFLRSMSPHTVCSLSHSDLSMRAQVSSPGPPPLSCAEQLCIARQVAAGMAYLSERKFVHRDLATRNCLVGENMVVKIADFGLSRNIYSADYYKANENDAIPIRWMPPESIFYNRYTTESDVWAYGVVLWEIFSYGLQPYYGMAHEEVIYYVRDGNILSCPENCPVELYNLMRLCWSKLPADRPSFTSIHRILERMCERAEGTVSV
Description: Inhibition of human MuSK assessed as remaining enzyme activity at 1 uM.

Test [5] has as its target BDNF/NT-3 growth factors receptor (Homo sapiens) (UniProt Q16620). Description: Inhibition of human TRKB assessed as remaining enzyme activity at 1 uM.
Test [6] addresses Serine/threonine-protein kinase B-raf (Homo sapiens) (UniProt P15056). Description: Inhibition of human B-Raf assessed as remaining enzyme activity at 1 uM.
Test [7] addresses Epithelial discoidin domain-containing receptor 1 (Homo sapiens) (UniProt Q08345). Description: Inhibition of human DDR1 assessed as remaining enzyme activity at 0.1 uM.
The target in test [8] is T1, Muscle, skeletal receptor tyrosine-protein kinase (Homo sapiens). Description: Inhibition of human MuSK assessed as remaining enzyme activity at 0.01 uM.
The target of test [9] is Homeodomain-interacting protein kinase 2 (Homo sapiens) (UniProt Q9H2X6). The test is described as follows: Inhibition of human HIPK2 assessed as remaining enzyme activity at 0.1 uM.

Vascular endothelial growth factor receptor 2 (Homo sapiens), sequence (P35968 whole entry): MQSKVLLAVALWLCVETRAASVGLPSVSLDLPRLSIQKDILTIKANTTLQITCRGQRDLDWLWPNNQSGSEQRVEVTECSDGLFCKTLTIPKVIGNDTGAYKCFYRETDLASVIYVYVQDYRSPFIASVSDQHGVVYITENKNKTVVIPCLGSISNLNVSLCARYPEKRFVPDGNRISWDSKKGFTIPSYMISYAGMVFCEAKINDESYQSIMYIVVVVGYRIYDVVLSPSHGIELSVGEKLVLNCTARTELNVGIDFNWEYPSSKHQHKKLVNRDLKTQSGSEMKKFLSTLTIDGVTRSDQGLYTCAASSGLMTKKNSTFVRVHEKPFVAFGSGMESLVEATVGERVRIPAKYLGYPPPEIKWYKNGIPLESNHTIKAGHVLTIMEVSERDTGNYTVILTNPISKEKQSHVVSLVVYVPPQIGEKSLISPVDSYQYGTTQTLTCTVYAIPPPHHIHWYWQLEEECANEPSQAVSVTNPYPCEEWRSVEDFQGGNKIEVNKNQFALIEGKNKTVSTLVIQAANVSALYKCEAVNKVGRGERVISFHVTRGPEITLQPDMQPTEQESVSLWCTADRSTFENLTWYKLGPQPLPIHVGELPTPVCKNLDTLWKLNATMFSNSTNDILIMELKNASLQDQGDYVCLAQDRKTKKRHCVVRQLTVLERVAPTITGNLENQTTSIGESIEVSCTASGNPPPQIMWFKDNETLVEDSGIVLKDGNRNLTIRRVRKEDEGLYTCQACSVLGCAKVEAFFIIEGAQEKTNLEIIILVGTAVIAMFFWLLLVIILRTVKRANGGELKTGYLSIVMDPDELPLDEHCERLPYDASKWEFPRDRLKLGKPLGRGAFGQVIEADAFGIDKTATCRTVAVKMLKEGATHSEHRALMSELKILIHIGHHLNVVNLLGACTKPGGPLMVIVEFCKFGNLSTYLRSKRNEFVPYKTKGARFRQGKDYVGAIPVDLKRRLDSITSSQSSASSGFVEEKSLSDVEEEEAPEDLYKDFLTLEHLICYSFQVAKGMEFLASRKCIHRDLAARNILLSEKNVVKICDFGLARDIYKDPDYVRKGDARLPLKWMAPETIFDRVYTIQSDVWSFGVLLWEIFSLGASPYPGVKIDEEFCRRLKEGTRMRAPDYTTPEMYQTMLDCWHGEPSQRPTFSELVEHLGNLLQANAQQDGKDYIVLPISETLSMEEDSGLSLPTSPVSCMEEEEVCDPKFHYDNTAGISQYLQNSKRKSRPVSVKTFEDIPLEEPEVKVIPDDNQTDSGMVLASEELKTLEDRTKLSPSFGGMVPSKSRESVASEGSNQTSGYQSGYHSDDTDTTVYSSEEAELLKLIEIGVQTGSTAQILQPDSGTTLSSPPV
Epithelial discoidin domain-containing receptor 1 (Homo sapiens), sequence (Q08345 whole entry, the tested form may be a part): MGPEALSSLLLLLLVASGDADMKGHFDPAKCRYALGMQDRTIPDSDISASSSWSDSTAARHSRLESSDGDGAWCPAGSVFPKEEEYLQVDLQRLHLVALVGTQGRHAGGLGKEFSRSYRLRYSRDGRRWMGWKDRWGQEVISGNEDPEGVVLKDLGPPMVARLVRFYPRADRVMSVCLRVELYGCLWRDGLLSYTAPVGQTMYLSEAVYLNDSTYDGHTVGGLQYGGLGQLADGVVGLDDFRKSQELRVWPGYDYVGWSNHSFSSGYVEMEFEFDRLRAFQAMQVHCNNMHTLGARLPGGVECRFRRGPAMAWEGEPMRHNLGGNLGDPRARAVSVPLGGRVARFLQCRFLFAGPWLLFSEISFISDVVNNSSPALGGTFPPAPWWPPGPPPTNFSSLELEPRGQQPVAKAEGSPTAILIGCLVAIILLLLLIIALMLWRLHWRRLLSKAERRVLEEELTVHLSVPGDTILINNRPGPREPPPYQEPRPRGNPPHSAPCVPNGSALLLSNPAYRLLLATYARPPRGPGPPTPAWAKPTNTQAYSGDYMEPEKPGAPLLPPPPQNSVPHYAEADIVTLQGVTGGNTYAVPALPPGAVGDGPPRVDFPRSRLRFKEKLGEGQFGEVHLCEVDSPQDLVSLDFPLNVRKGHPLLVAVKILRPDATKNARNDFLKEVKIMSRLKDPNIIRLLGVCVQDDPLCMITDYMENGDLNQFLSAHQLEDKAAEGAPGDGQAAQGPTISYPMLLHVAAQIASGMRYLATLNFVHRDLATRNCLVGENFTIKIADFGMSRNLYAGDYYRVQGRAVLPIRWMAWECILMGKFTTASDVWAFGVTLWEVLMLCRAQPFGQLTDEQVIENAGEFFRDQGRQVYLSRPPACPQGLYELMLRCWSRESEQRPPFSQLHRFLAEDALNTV
BDNF/NT-3 growth factors receptor (Homo sapiens), sequence (Q16620 32-822 limits assumed): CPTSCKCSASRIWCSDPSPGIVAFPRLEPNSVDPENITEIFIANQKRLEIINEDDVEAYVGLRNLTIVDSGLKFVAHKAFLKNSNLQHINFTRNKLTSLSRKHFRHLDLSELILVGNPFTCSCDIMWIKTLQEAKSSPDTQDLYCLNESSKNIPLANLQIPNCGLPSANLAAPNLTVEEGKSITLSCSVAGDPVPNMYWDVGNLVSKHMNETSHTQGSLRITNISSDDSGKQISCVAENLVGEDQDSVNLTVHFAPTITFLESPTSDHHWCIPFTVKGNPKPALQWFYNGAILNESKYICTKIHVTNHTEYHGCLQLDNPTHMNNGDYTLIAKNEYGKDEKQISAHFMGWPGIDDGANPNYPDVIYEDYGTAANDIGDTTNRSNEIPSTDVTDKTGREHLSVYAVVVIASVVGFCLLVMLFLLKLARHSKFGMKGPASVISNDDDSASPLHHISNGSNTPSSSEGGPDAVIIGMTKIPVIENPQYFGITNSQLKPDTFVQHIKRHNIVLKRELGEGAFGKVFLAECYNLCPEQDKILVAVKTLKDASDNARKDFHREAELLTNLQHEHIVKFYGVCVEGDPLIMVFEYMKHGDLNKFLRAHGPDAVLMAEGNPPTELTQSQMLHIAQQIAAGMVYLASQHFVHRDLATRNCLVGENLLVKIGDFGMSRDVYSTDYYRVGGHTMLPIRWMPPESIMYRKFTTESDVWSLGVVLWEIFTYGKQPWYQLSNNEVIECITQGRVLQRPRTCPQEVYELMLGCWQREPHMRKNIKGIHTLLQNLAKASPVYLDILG
Tyrosine-protein kinase ABL2 (Mus musculus), sequence (Q4JIM5 whole entry): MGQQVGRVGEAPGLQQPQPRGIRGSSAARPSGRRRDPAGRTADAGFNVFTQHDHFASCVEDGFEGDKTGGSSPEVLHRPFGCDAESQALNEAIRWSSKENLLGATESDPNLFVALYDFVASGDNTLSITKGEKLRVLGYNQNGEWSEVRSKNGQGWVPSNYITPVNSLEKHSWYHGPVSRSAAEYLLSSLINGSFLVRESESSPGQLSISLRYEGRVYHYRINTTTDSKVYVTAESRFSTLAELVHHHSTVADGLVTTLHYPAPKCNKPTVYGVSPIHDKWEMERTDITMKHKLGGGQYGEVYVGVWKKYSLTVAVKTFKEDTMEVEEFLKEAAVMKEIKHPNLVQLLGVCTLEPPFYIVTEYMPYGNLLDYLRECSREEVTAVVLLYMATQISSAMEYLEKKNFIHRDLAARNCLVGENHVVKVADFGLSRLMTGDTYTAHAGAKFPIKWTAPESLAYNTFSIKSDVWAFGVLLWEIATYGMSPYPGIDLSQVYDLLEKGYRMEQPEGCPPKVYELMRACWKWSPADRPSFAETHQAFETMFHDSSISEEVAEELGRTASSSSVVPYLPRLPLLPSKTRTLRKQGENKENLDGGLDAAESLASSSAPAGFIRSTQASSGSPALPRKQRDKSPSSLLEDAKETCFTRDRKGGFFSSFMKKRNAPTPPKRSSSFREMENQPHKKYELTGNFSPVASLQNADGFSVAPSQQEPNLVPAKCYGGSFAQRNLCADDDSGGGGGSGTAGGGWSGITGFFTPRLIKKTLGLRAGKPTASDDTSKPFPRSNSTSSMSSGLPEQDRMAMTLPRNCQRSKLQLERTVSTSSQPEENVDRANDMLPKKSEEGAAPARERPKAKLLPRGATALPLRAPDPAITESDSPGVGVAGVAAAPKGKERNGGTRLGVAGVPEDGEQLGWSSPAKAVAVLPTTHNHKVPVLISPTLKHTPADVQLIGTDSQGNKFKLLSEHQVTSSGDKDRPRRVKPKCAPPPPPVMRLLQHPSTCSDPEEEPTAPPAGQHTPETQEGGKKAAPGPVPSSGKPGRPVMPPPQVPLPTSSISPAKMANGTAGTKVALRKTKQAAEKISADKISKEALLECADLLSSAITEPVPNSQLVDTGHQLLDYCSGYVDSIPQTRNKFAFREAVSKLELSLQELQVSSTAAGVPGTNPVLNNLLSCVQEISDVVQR
Serine/threonine-protein kinase B-raf (Homo sapiens), sequence (P15056 whole entry, the tested form may be a part): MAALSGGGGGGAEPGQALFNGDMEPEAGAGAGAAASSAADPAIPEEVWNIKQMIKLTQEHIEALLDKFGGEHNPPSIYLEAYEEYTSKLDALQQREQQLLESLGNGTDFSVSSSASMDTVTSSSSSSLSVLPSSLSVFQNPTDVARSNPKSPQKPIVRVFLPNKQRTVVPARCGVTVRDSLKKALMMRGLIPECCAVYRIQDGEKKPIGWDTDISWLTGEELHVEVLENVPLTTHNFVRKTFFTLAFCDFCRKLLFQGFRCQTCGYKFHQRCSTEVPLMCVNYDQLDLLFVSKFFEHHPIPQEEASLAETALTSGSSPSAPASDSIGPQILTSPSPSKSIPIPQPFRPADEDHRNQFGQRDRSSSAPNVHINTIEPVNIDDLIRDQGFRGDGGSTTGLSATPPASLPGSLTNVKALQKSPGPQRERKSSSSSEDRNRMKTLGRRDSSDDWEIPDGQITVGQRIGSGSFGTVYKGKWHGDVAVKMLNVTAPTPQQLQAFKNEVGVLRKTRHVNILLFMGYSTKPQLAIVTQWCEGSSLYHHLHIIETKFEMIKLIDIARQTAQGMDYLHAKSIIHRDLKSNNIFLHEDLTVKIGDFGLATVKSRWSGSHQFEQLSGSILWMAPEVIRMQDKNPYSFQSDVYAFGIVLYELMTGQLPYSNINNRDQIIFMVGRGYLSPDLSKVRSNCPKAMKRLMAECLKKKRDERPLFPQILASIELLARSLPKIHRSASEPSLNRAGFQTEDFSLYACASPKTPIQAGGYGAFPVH

For the compound `CNC(=O)c1cc(Oc2ccc(NC(=O)Nc3ccc(Cl)c(C(F)(F)F)c3)c(F)c2)ccn1`, the Activity in test [1] was determined as 57%; in test [2] it was 97%; in test [3] it was 19%; in test [4] it was 21%; in test [5], 1%; in [6], 8%. Besides, the Activity in [7] is 43%; in test [8], 89%; in [9], 61%.

The record behind these values is ChEMBL document CHEMBL4725218, “Deep Learning Enhancing Kinome-Wide Polypharmacology Profiling: Model Construction and Experiment Validation” (J Med Chem, 2020).
